Laboratory results: patent US9511062B2, “Compacted rumen protected nutrient pellets and method of manufacture” (Qualitech, Inc., priority 2011, dated 2016)

What was measured:
[1] = Rumen protected niacin, effect upon milk production; assay type: in vivo, Holstein cows; settings: 12 g top-dressed on TMR twice daily (N12 / BN12)
Text: Six multiparous rumen-cannulated Holstein cows (BW=656 kg) after peak lactation (128±23 days in milk) were assigned to 1 of 6 treatments in a completely randomized 6×6 Latin Square with an extra period to measure carry-over effects. Periods consisted of a 7-day (d 1-7) adaptation period followed by a 7-day (d 8-14) measurement period. Cows were fed according to NRC (2001) recommendations to meet or exceed requirements. Treatments were: CON (no niacin), INF (abomassal infusion of 12 g unprotected niacin (UN)), N12 (12 g UN), BN3 (3 g PN), BN6 (6 g PN), and BN12 (12 g PN). Treatments N12, BN3, BN6, and BN 12 were top-dressed on the Total Mixed Ration (TMR) twice daily. The daily dose of treatment INF was divided in 5 equal portions and infused during the day every 4 hours. Cows receiving treatments other than INF were infused with the same volume of water at the same time.

[2] = Rumen protected niacin, response to epinephrine (Epi) challenge; assay type: in vivo, Holstein cows
Text: Niacin may modulate lipolytic responses in adipose tissue but is highly degradable in the rumen so that oral administration leads to unknown quantities absorbed. We determined responses to epinephrine (Epi) challenge as affected by three levels of protected niacin (PN) or unprotected niacin (UN) in the diet or infused abomasally.
Six multiparous rumen-cannulated Holstein cows (BW=656 kg; 128±23 days in milk) were used in a completely randomized 6×6 Latin Square with an extra period to quantify carryover effects. Periods consisted of 7 days for adaptation followed by 7 days for measurements. Cows were fed according to NRC (2001) recommendations. Treatments were: CON (no niacin), INF (abomassal infusion of 12 g UN), N12 (12 g UN), BN3 (3 g PN), BN6 (6 g PN), and BN12 (12 g PN). Treatments N12, BN3, BN6, and BN12 were top-dressed on the Total Mixed Ration (TMR) twice daily. Treatment INF was divided in 5 equal portions and infused every 4 hours. Cows receiving treatments other than INF were infused with the same volume of water at the same times.
On day 12, cows received an i.v, infusion of Epi (1.4 μg/kg BW). […] Total area under the curve (AUC) responses of nonesterified Fatty Acids (NEFA) and glucose concentrations in plasma were calculated using the trapezoidal rule.

Compound: O=C(O)c1cccnc1 [UN, niacin]
- dry matter intake (DMI) [1]: 24.3 ± 1 kg
- milk fat/protein ratio (F/P) ([1]; P=0.03): 1.15±0.09
- Feed efficiency (FE=energy-corrected milk/DMI) ([1]; P=0.04): 1.5±0.1
- Milk yield ([1]; P=0.06): 37.1 ± 2.3 kg
- Time to peak NEFA concentration ([2]; 12 g top-dressed on TMR twice daily (N12 / BN12), i.v. Epi 1.4 μg/kg BW on day 12, plasma): 22.1 ± 3.2 min
- glucose AUC ([2]; abomasal infusion of 12 g (INF) compared with N12, Epi challenge, P=0.04): greater AUC than N12
